Test results taken from ChEMBL document CHEMBL1142074, “In vitro activities of cloxyquin (5-chloroquinolin-8-ol) against Mycobacterium tuberculosis” (2007).

Experiments:
Assay type in all cases: functional
[1] = test system: Mycobacterium tuberculosis; assay: Antimycobacterial activity against pyrazinamide-resistant Mycobacterium tuberculosis H37Rv ATCC 35828 by microplate alamar blue assay
[2] = test system: Mycobacterium tuberculosis; assay: Antimycobacterial activity against ethionamide-resistant Mycobacterium tuberculosis H37Rv ATCC 35830 by microplate alamar blue assay
[3] = test system: Mycobacterium tuberculosis; assay: Antimycobacterial activity against cycloserine-resistant Mycobacterium tuberculosis H37Rv ATCC 35826 by microplate alamar blue assay
[4] = test system: Mycobacterium tuberculosis; assay: Antimycobacterial activity against thiacetazone-resistant Mycobacterium tuberculosis H37Rv ATCC 35829 by microplate alamar blue assay
[5] = test system: Mycobacterium tuberculosis; assay: Antimycobacterial activity against kanamycin-resistant Mycobacterium tuberculosis H37Rv ATCC 35827 by microplate alamar blue assay
[6] = test system: Mycobacterium tuberculosis; assay: Antimycobacterial activity against ethambutol-resistant Mycobacterium tuberculosis H37Rv ATCC 35837 by microplate alamar blue assay

Measured: MIC

Oc1ccc(Cl)c2cccnc12 [CLOXYQUIN]
0.125 µg/mL: [1] | [2] | [3] | [4] | [5] | [6]
